Assay results: ChEMBL document CHEMBL3882242, “Synthesis and biological evaluation of analogs of the antimitotic marine natural product curacin A” (2002)
Activity calls are given as the source filed them. No cut-off for these calls is given here.

Tests used:
Tubulin (Bos taurus) [1] = target: T1, Tubulin (Bos taurus) (UniProt Q6B856+Q862L2+Q862F3); assay: Inhibition of [3H]colchicin binding to bovine brain tubulin incubated at 5 uM and 30 degreeC for 10 mins in presence of GTP by scintillation spectroscopic method
[2] = Growth inhibition of human MDA-MB-231 cells incubated for 48 hrs by MTS assay; assay type: functional; settings: MDA-MB-231, 48 h
[3] = Growth inhibition of human MDA-MB-231 cells incubated for 96 hrs by MTS assay; assay type: functional; settings: MDA-MB-231, 96 h
[4] = Growth inhibition of human PC3 cells incubated for 96 hrs by MTS assay; assay type: functional; settings: PC-3, 96 h
[5] = Growth inhibition of human 2008 cells incubated for 96 hrs by MTS assay; assay type: functional; settings: Homo sapiens, 2008, 96 h
[6] = Growth inhibition of human PC3 cells incubated for 48 hrs by MTS assay; assay type: functional; settings: PC-3, 48 h
Tubulin (Bos taurus) [7] = target: T1, Tubulin (Bos taurus); assay: Inhibition of GTP/glutamate-induced bovine brain tubulin polymerization at 5 uM by […]
[8] = Growth inhibition of human 2008 cells incubated for 48 hrs by MTS assay; assay type: functional; settings: Homo sapiens, 2008, 48 h
Tubulin (Bos taurus) [9] = target: T1, Tubulin (Bos taurus); assay: Inhibition of [3H]colchicin binding to bovine brain tubulin incubated at 50 uM and 30 degreeC for 10 mins in presence of GTP by scintillation spectroscopic method
Tubulin (Bos taurus) [10] = target: T1, Tubulin (Bos taurus); assay: Inhibition of [3H]colchicine binding to bovine brain tubulin at 50 uM relative to control
Tubulin (Bos taurus) [11] = target: T1, Tubulin (Bos taurus); assay: Inhibition of [3H]colchicine binding to bovine brain tubulin at 5 uM relative to control
MCF7 [12] = assay: Antimitotic activity in human MCF7 cells assessed as increase in mitotic index at 7.8 to 1000 nM measured after 14 to 16 hrs by immunohistochemical analysis; assay type: functional, cell-based
MCF7 [13] = assay: Antimitotic activity in human MCF7 cells assessed as chromatin condensation at 7.8 to 1000 nM measured after 14 to 16 hrs by immunohistochemical analysis; assay type: functional, cell-based
MCF7 [14] = assay: Antimitotic activity in human MCF7 cells assessed as increase in core histone phosphorylation at 7.8 to 1000 nM measured after 14 to 16 hrs by immunohistochemical analysis; assay type: functional, cell-based
MCF7 [15] = assay: Antimitotic activity in human MCF7 cells assessed as disruption of microtubules at 7.8 to 1000 nM measured after 14 to 16 hrs by immunohistochemical analysis; assay type: functional, cell-based
MCF7 [16] = assay: Antimitotic activity in human MCF7 cells assessed as induction of cell rounding at 7.8 to 1000 nM measured after 14 to 16 hrs by immunohistochemical analysis; assay type: functional, cell-based

Row | Structure (SMILES) | inhibition (Tubulin (Bos taurus) [1]) [%] | GI50 [2] [nM] | GI50 [3] [nM] | GI50 [4] [nM] | GI50 [5] [nM] | GI50 [6] [nM] | inhibition (Tubulin (Bos taurus) [7]) [%] | GI50 [8] [nM] | inhibition (Tubulin (Bos taurus) [9]) [%] | inhibition (Tubulin (Bos taurus) [10]) [%] | inhibition (Tubulin (Bos taurus) [11]) [%] | other results
1 | C=CC[C@@H](CC[C@@]1(C)C[C@H]1[C@H]1C[C@@H]1CC/C=C\[C@@H]1CSC([C@@H]2C[C@@H]2C)=N1)OC | 9 | > 50000 | > 50000 | > 50000 | > 50000 | > 50000 | 0 | > 50000 | – | – | – | –
2 | C=CC[C@@H](CC/C(C)=C/C=C/CC/C=C\c1csc(C(C)(C)C)n1)OC | 38 | – | – | – | – | – | 100 | – | 43 | – | – | –
3 | COc1cc(/C=N\OC[C@@H]2C[C@H]2CCC(C)c2cccs2)cc(OC)c1OC (stereo not given in full) | -10 | > 50000 | > 50000 | > 50000 | > 50000 | > 50000 | – | > 50000 | 18 | – | – | –
4 | COc1cc(/C=C\CC/C=C/C=C(\C)CCC(O)c2cc3ccccc3o2)cc(OC)c1OC (stereo not given) | – | 86 to 120 | 204 | 1120 | 199 | 310 to 596 | 74.6 | – | – | 68.7 | 12.5 | –
5 | COc1ccc(/C=C\CC/C=C/C=C(\C)CCC(O)c2cc(OC)ccc2OC)c(OC)c1 (stereo not given) | – | – | – | > 50000 | – | > 50000 | – | – | – | – | – | –
6 | COc1ccc(OC)c(C(O)CC/C(C)=C/C=C/CC/C=C\c2cc(OC)c(OC)c(OC)c2)c1 (stereo not given) | – | – | 8730 | – | – | – | 3.5 | – | – | 20.3 | 0.7 | –
7 | COc1cc(/C=N\OC/C=C/C=C(\C)CCC(O)c2cccs2)cc(OC)c1OC (stereo not given) | – | – | – | – | – | – | 100 | – | 57 | – | – | –
8 | COc1ccc(/C=C\CC/C=C/C=C(\C)CCC(O)c2ccccc2OC)c(OC)c1 (stereo not given) | – | > 50000 | – | > 50000 | – | > 50000 | – | – | – | – | – | –
9 | C=CC[C@@H](CC/C(C)=C/C=C/CC/C=C\c1coc(C(C)(C)C)n1)OC | 7 | – | – | > 50000 | > 50000 | – | – | – | 7 | – | – | –
10 | COc1cc(/C=C\CC/C=C/C=C(\C)CCC(O)c2cccs2)cc(OC)c1OC (stereo not given) | – | 151 to 280 | 214 | 1020 | – | 366 to 380 | > 100 | 280 to 311 | – | 59 | 9.9 | Activity (MCF7 [12]): Active
11 | C=CC[C@@H](CC/C(C)=C/C=C/CC/C=C\[C@@H]1CSC(C(C)(C)C)=N1)OC | 35 | – | – | – | – | – | 100 | – | 63 | – | – | –
12 | COc1cc(/C=C\CC/C=C/C=C(\C)CCC(O)c2ccco2)cc(OC)c1OC (stereo not given) | – | – | – | – | – | – | – | – | – | – | – | Activity (MCF7 [12]): Active
13 | C=CC[C@@H](CC/C(C)=C/C=C/CC/C=C\[C@@H]1COC(/C=C/c2ccccc2)=N1)OC | 9 | – | – | – | – | – | – | – | – | – | – | –
14 | C=CC[C@@H](CC/C(C)=C/C=C/CC/C=C\[C@@H]1CSC([C@@H]2C[C@@H]2C)=N1)OC [CURACIN A] | – | 96 to 186 | – | – | – | – | 97.9 to 98 | – | – | 96.2 to 97.7 | 84.9 to 95 | –
15 | COc1ccc(/C=C\CC/C=C/C=C(\C)CCC(O)c2cc3ccccc3s2)c(OC)c1 (stereo not given) | – | > 50000 | – | > 50000 | – | > 50000 | – | – | – | < 26.4 | – | –
16 | COc1cc(/C=C\CC/C=C/C=C(\C)CCC(O)c2cc3ccccc3s2)cc(OC)c1OC (stereo not given) | – | 83 to 230 | 1280 | 1220 | 235 | 620 to 875 | > 100 | 360 to 380 | – | – | 30.2 | Activity (MCF7 [12]): Active; Activity (MCF7 [13]): Active; Activity (MCF7 [14]): Active; Activity (MCF7 [15]): Active; Activity (MCF7 [16]): Active
17 | C=CC[C@@H](CC/C(C)=C/C=C/CC/C=C\[C@@H]1COC(C(C)(C)C)=N1)OC | 14 | – | – | – | – | – | 0 | – | 80 | – | – | –
18 | COc1ccc(/C=C\CC/C=C/C=C(\C)CCC(O)c2ccco2)c(OC)c1 (stereo not given) | – | – | – | > 50000 | – | > 50000 | – | – | – | – | – | –
19 | COc1cc(/C=N\OC[C@H]2C[C@@H]2[C@@H]2C[C@]2(C)CCC(O)c2cccs2)cc(OC)c1OC (stereo not given in full) | -9 | 980 | 15000 | 8800 | 39000 | 1200 | 26 | 9900 | -1 | – | – | –
20 | COc1ccccc1C(O)CC/C(C)=C/C=C/CC/C=C\c1cc(OC)c(OC)c(OC)c1 (stereo not given) | – | 243 to 340 | 221 | – | 268 | 620 to 933 | > 100 | 314 to 330 | – | 73 | 5 | Activity (MCF7 [12]): Active
